Literature values as cited in patent US20040170683A1, “Tablets comprising modafinil” (priority 2003, published 2004).

Key:
[1] = oral, human trials; median particle size between 30 and 50 microns versus between 80 and 150 microns
[2] = capsules containing the finer particles versus capsules containing the coarser particles

For `NC(=O)C[S+]([O-])C(c1ccccc1)c1ccccc1` (centres unmarked) [modafinil, Modafinil], the extent of absorption [1] is listed as “greater extent of absorption” and the dissolution of capsules [2] is listed as “substantially faster”.
